Assay results as given in patent US12491204B2, “Use of oleanolic acid-28-O-beta-D-glucopyranoside in preparation of anti-colitis drug” (JILIN UNIVERSITY, priority 2023, dated 2025).

Experiments:
[1] = system: DSS-induced UC model mice; assay: DSS-induced UC model: body weight, DAI score, colon length, spleen coefficient; type: in vivo, BALB/c male mice; conditions: for weight loss rate: 3.5% DSS 7 days, gavage once a day Day 4 to Day 10, 28-OA-β-G 5, 10, 20 mg/kg
Protocol: (§1) SPF-grade BALB/c male mice (weighting 22-24 g) were purchased from Changchun Yisi Laboratory Animal Technology Co., Ltd. After 1 week of adaptive feeding, the mice were randomly divided into 6 groups (n=10), including: a control group, a model group, a positive drug group (5-ASA, 100 mg/kg), an oleanolic acid-28-O-β-D-glucopyranoside low-dose group (28-OA-β-GL, 5 mg/kg), an oleanolic acid-28-O-β-D-glucopyranoside medium-dose group (28-OA-β-GM, 10 mg/kg), and an oleanolic acid-28-O-β-D-glucopyranoside high-dose group (28-OA-β-GH, 20 mg/kg).
(§2) The control group was administrated with distilled water, while the other groups were freely allowed to drink a 3.5% dextran sulfate sodium (M.W.: 40,000 Da, DSS) solution for 7 days to induce a UC model. From the Day 4 to Day 10 of modeling, the mice in the control group and the model group were administrated with distilled water by gavage, while the mice in other groups were administrated with a 5-ASA or 28-OA-β-G solution by gavage, respectively. The gavage was performed once a day. The administration volume was 10 ml/kg. After fasting for 12 hours on the Day 10, whole blood was collected from all mice by using an eyeball blood collection method, the mice were killed by cervical dislocation, and colon tissues and spleen tissues were collected.
Body weight and disease activity index scores: during the experiment, all mice were weighed every day, and the general behavior states of the mice were observed; the weight changes, stool states and hematochezia degrees of the mice were recorded every day, and scored according to the criteria shown in Table 3; and an average disease activity index (DAI) score of the mice in each group per day was calculated according to the formula: DAI=(weight loss score+stool state score+hematochezia degree score)/3.
Spleen coefficient: the spleen tissues were dissected and accurately weighed, and the spleen coefficient was calculated using the formula: spleen coefficient=spleen mass (mg)/mouse weight (g), as shown in FIG. 10. The spleen coefficient also reflected the degree of inflammatory response within the body.

[2] = system: DSS-induced UC model mice; assay: Inflammatory factor and oxidative stress indicators by ELISA in serum and colon of DSS-induced UC model; type: in vivo, BALB/c male mice; conditions: compared with model group; for IL-6 level / TNF-α level / iNOS level: serum and colon, gavage 5-ASA 100 mg/kg, 28-OA-β-G 5, 10, 20 mg/kg
Protocol: SPF-grade BALB/c male mice (weighting 22-24 g) were purchased from Changchun Yisi Laboratory Animal Technology Co., Ltd. After 1 week of adaptive feeding, the mice were randomly divided into 6 groups (n=10), including: a control group, a model group, a positive drug group (5-ASA, 100 mg/kg), an oleanolic acid-28-O-β-D-glucopyranoside low-dose group (28-OA-β-GL, 5 mg/kg), an oleanolic acid-28-O-β-D-glucopyranoside medium-dose group (28-OA-β-GM, 10 mg/kg), and an oleanolic acid-28-O-β-D-glucopyranoside high-dose group (28-OA-β-GH, 20 mg/kg). The control group was administrated with distilled water, while the other groups were freely allowed to drink a 3.5% dextran sulfate sodium (M.W.: 40,000 Da, DSS) solution for 7 days to induce a UC model. From the Day 4 to Day 10 of modeling, the mice in the control group and the model group were administrated with distilled water by gavage, while the mice in other groups were administrated with a 5-ASA or 28-OA-β-G solution by gavage, respectively. The gavage was performed once a day. The administration volume was 10 ml/kg. After fasting for 12 hours on the Day 10, whole blood was collected from all mice by using an eyeball blood collection method, the mice were killed by cervical dislocation, and colon tissues and spleen tissues were collected. Content determination of inflammatory factor and oxidative stress indicators: serum and colon tissue samples were collected, and the contents of TNF-α, IL-6, and iNOS in the serum and colon were determined using an ELISA kit, while the levels of MPO, SOD, and MDA in the colon were detected.

[3] = system: TNF-α, IL-6, and iNOS in Caco-2 cells; assay: Inflammatory factors TNF-α, IL-6, iNOS by ELISA in LPS-induced Caco-2 cell model; type: cell-based, Human; conditions: LPS 1 μg/ml, 24 hours; high-dose groups 8 μM
Protocol: (§3) (1) Determination of Transmembrane Epithelial Resistance and Inflammatory Factors in Caco-2 Cells
(§4) The Caco-2 cells were inoculated at a density of 1×10^5 cells/ml (400 μl per well) into a Transwell chamber and cultured under 5% CO2 and 37° C. After Day 21, a medium was replaced with a basal MEM medium. […] Resistance values were measured using a transmembrane resistance meter. TEER value=(measured resistance value−control resistance value)×Transwell chamber area, expressed in Ω·cm^2. […]

Caco-2 cells = assay: Transmembrane epithelial resistance (TEER) in LPS-induced Caco-2 cells; type: cell-based, Human; conditions: LPS 1 μg/ml + 28-OA-β-G 8 μM, 24 hours; compared with LPS treatment
Protocol: as §3, §4

[4] = system: ZO-1, Occludin, Claudin-1, and E-cadherin in Caco-2 cells; assay: Expression of tight junction proteins in Caco-2 cells by immunofluorescence; type: cell-based, Human; conditions: 24 hours
Protocol: (2) Determination of Expression Level of Tight Junction Proteins in Caco-2 Cells
Caco-2 cells (1×10^5 cells/ml) were inoculated onto a cell climbing slice in a 24-well plate (with 600 μl of cells per well), and reached confluence within 2 days. The cells were divided into 7 groups: a control group, a model group (LPS 1 μg/ml), a 5-ASA group (LPS 1 μg/ml+5-ASA 50 μM), an LPS+28-OA-β-GL group (LPS 1 μg/ml+28-OA-β-G 2 μM), an LPS+28-OA-β-GM group (LPS 1 μg/ml+28-OA-β-G 4 μM), an LPS+28-OA-β-GH group (LPS 1 μg/ml+28-OA-β-G 8 μM), and a 28-OA-β-G group (28-OA-β-G 8 μM). The control group was added with a MEM medium, while the other groups were added with the corresponding doses of LPS and 28-OA-β-G with the MEN medium as a solvent, and incubated in a 5% CO2, 37° C. constant-temperature incubator for 24 hours. Immunofluorescence imaging was performed after a series of treatments.

[5] = system: DSS-induced UC model mice; assay: FD4 permeability analysis in DSS-induced UC model; type: in vivo, BALB/c male mice; conditions: 20 mg/kg FD4 by gavage 30 minutes before sacrifice; 28-OA-β-G intervention; compared with model group
Protocol: as §1
The control group was administrated with distilled water, while the other groups were freely allowed to drink a 3.5% dextran sulfate sodium (M.W.: 40,000 Da, DSS) solution for 7 days to induce a UC model. […]
FD4 permeability analysis: all mice were administrated with 20 mg/kg FD4 normal saline solution by gavage 30 minutes before sacrifice, whole blood was collected by the eye blood collection method on a sterile ultra-clean table, and the upper serum was taken after centrifugation, and then aspirated into a black 96-well microplate. The fluorescence intensity was detected using a microplate reader at an excitation wavelength of 492 nm and an emission wavelength of 520 nm. […]

[6] = system: DSS-induced UC model mice; assay: Transmission electron microscope observation of mouse colon tissues; type: in vivo, BALB/c male mice; conditions: 28-OA-β-GH group, 20 mg/kg; compared with model group
Protocol: as §1
as §2, with “collected. […]” for “collected.”

## Nc1ccc(O)c(C(=O)O)c1 [5-ASA, 5-aminosalicylic acid, reference compound]
[1]; 5-ASA 100 mg/kg
  weight loss rate: significantly reduced
[1]; positive drug group, 5-ASA 100 mg/kg, compared with model group
  spleen coefficient: significantly reduced
[2]
  IL-6 level: significantly decreased
  TNF-α level: significantly decreased
  iNOS level: significantly decreased

## CC1(C)CC[C@]2(C(=O)O[C@@H]3O[C@H](CO)[C@@H](O)[C@H](O)[C@H]3O)CC[C@]3(C)C(=CC[C@@H]4[C@@]5(C)CC[C@H](O)C(C)(C)[C@@H]5CC[C@]43C)[C@@H]2C1 [28-OA-β-G, Oleanolic acid-28-O-β-D-glucopyranoside]
[3]
  anti-inflammatory activity (TNF-α, IL-6, iNOS levels), comparison among compounds: best anti-inflammatory activity among the high-dose administration groups
Caco-2 cells
  TEER value: significantly increased
[4]; LPS 1 μg/ml + 28-OA-β-G 2, 4, 8 μM, as dose increased
  distribution on the cell membrane and expression of the four tight junction proteins (ZO-1, Occludin, Claudin-1, E-cadherin): regained their normal distribution on the cell membrane and also increase the expression
[4]; normal cells without LPS, 28-OA-β-G alone 8 μM
  expression of the four tight junction proteins (ZO-1, Occludin, Claudin-1, E-cadherin): not affected
[1]; 5-ASA 100 mg/kg
  weight loss rate: significantly reduced
[1]; 28-OA-β-G 5, 10, 20 mg/kg gavage
  weight changes, relation to dose: positively correlated with the increase in dose
[1]; 28-OA-β-G high-dose group, 20 mg/kg, compared with model group
  spleen coefficient: significantly reduced
[1]; 28-OA-β-G medium-dose group, 10 mg/kg, compared with model group
  spleen coefficient: significantly reduced
[1]; 28-OA-β-GH group, 20 mg/kg gavage
  weight changes: tended towards the control group
[1]; DSS-induced UC model, compared with positive control 5-ASA
  anti-ulcerative-colitis activity (overall conclusion): significant anti-ulcerative-colitis activity which was not statistically different from that of the positive control group of 5-ASA
[1]; Day 10, 28-OA-β-GH group, 20 mg/kg, 5-ASA 100 mg/kg
  DAI score compared to the 5-ASA group: no significant difference compared to the 5-ASA group
[1]; Day 10, 28-OA-β-GH group, 20 mg/kg, compared with model group
  DAI score: significantly lower than that in the model group
[1]; oral administration of 28-OA-β-G 5, 10, 20 mg/kg, compared with model group
  colon length (degree of colon damage): effectively alleviated
[5]
  serum FD4 concentration (FD4 permeability): significantly reduced
[2]; colon
  MDA level: dose-dependently reduce
  MPO level: dose-dependently reduce
  SOD level: increased
[2]
  IL-6 level: significantly decreased
  TNF-α level: significantly decreased
  iNOS level: significantly decreased
[6]
  ultrastructure of colonic mucosa cells (transmission electron microscope): restored the integrity of intestinal mucosa cells
